Experimental findings from US5348962A, “Hydroxyquinolone derivatives compounds which have pharmaceutical utility” (Merck Sharpe & Dohme Ltd., priority 1990, dated 1994) are described below.

For this assay, the system named is AMPA receptor. As to the kind of experiment: Cortical slice studies: responses to AMPA in rat cortical slice. Type of assay: cell-based. The conditions noted are these: from righthand shift in AMPA concentration-response curves, read-out: apparent equilibrium constant (Kb) in response to AMPA. On the procedure: The compounds useful in this invention potently and selectively block responses to NMDA and/or AMPA in a brain slice from rat cortex, and inhibit the binding of agonists and antagonists to the strychnine-insensitive site present on the NMDA receptor and/or AMPA binding to rat forebrain membranes.
The effects of compounds of the invention on responses to NMDA and AMPA were assessed using the rat cortical slice as described by Wong et al., Proc. Natl. Acad. Sci. USA, 1986, 83, 7104. The apparent equilibrium constant (Kb) was calculated from the righthand shift in the NMDA or AMPA concentration-response curves produced by the compound under test.

Molecules are shown by their SMILES.

On to `O=c1[nH]c2cc([N+](=O)[O-])ccc2c(O)c1-c1ccccc1` [Example 12, 4-Hydroxy-7-nitro-3-phenyl-2(1H)-quinolone], for which the Kb was < 150 µM.
